Data on two substances can be found in publication PMC9061999, “Application of the Adverse Outcome Pathway Concept to In Vitro Nephrotoxicity Assessment: Kidney Injury due to Receptor-Mediated Endocytosis and Lysosomal Overload as a Case Study” (Frontiers in Toxicology, 2022).

One data set relates to RPTEC/TERT1 cells. Briefly: CellTiter-Glo cytotoxicity assay (KE3). Type of data set: cell-based, human. The following applies: for BMC10, KE3: in vitro POD from KE dose-response, cell viability CellTiter-Glo, RPTEC/TERT1, 24 h treatment, n = 3; for MOE, KE3: margin of exposure: BMC10 in RPTEC/TERT1 vs human plasma/serum concentration (cmax or css). The procedure:
(§1) Cells were plated into 96-well tissue culture plates (10,000 cells per well) and were allowed to grow for 48 h (NRK-52E) respectively 10 d (RPTEC/TERT1) prior to 24 h treatment with model stressors. Stock solution for each compound (2000 µM) was prepared in growth medium and serial dilutions (1:1) were made before each experiment. At the end of the 24 h treatment, cell viability was measured using the CellTiter-Glo® assay (Promega). CellTiter-Glo® reagents and buffer were mixed under light-protected conditions and 100 µL CellTiter-Glo® solution was added directly to each well followed by 2 min incubation on an orbital shaker and 10 min incubation at room temperature in the dark to stabilize the luminescence signal. The suspension was mixed via pipetting and 50 µL were transferred into white 96-well plates (PerkinElmer Inc.). The luminescence signal was measured on a multiplate reader (Mithras LB 940; Berthold). Each assay was performed in three independent experiments carried out in triplicates.
For orientation: In ATP-based viability assays light output follows the ATP content of the culture.

Data set [1] has as its system NRK-52E cells. Put plainly: LC-MS/MS analysis of intracellular concentration. The following applies: for Intracellular accumulation in NRK-52E compared to RPTEC-TERT1 cells: 24 h; for Intracellular concentration after recovery compared to the 24 h time-point: 34 µM for 24 h, then 24 h in fresh medium; for Time course of intracellular concentration: within the 24 h treatment period (1-2 min, 1, 3, 6, 24 h), n = 3. The format is in vitro ADME, rat. The procedure: NRK-52E and RPTEC/TERT1 cells were seeded in 12-well plates (120,000 cells per well) and were allowed to grow for 48 h (NRK-52E) or 10 d (RPTEC/TERT1) until they reached 100% confluence. After cells achieved 100% confluence, the supernatant was aspirated, and the cells were washed twice with 1 x PBS. Cells were treated with polymyxins at a final concentration of 34 µM for 24 h. Samples were taken at five different treatment time points (1–2 min, 1, 3, 6, and 24 h). In addition, a recovery sample was taken 24 h after the end of the 24 h treatment period. To this end, the supernatant was aspirated after 24 h treatment and the cells were washed three times with 1 x PBS to remove polymyxin B or colistin residues. Fresh growth medium was added, and the cells were incubated for another 24 h. At the end of each experiment, the cells were washed 3 times with 1 x PBS and trypsinized by adding 200 µL of trypsin. Detached cells were washed with 1,000 µL 1 x PBS and the cells were transferred to LoBind™ tubes (Eppendorf). Cell count was determined using a Fuchs-Rosenthal counting chamber (Hartenstein). Cells were centrifuged for 5 min at 4°C at 10.000 rpm and the supernatant was aspirated. Cells were resuspended in 1,000 µL 1 x PBS and centrifuged for 5 min at 4°C at 10.000 rpm. After centrifugation, the supernatant was aspirated, and the cell pellet was resuspended in 250 µL ammonium acetate buffer (10 mM) and 250 µL of 30% methanol with 1% acetic acid containing polymyxin B respectively colistin as an internal standard. Cells were sonicated for 10 min and centrifuged for 5 min at 4°C at 14.000 rpm. The supernatant was transferred quantitatively into new LoBind™ tubes (Eppendorf) and dried in a centrifugal vacuum concentrator for 2–3 h. To measure compound plastic binding, the empty 12 well plates were washed with 1.5 ml acetonitrile on an orbital shaker for 2 h and supernatant was collected. For sample purification via solid phase extraction, SPE cartridges Strata-X 33 µm polymeric reversed phase, 10 mg/1 ml (Phenomenex) were used. In the conditioning step the cartridges were rinsed with 200 µL methanol (100%) and subsequently with 200 µL ddH2O to activate the sorbent bed. The dried samples were dissolved in 200 µL 1% acetic acid and transferred onto the SPE cartridge. The SPE cartridge were rinsed once with 200 µL 1% acetic acid. Impurities were removed by rinsing the cartridge once with 200 µL 10% methanol. A fresh LoBind™ tube (Eppendorf) was placed under the SPE cartridge to eluate the samples by rinsing twice with 200 µL 90% methanol containing 1% acetic acid. The samples were dried in a centrifugal vacuum concentrator for 2–3 h. All samples were stored at −20°C until LC-MS/MS analysis.
A triple quadrupole mass spectrometer equipped with a Turbo-Ion® Spray source (QTrap API 2000; AB Sciex Instruments) was used for analyses. The mass spectrometer was coupled to an Agilent 1100 HPLC system consisting of a binary pump system, a vacuum degasser and an autosampler (Agilent 1,100). Chromatographic separation was performed at 40°C with a column oven (Knauer) on a Synergi Hydro-RP column (2 mm × 150 mm, 4 μm, 80 Å; Phenomenex) coupled to a precolumn (SecurityGuard™ Cartridges, AQ C18 4 × 2.0 mm) using a binary step gradient at a flow rate of 0.2 ml/min with the following gradient: 0 min 100% A, 15 min 0% A, 20 min 0% A, 21 min 100% A, and 30 min 100% A. Mobile phase consisted of 3% acetonitrile containing 1% acetic acid and (solvent A) and 97% acetonitrile containing 1% acetic acid (solvent B). The injection volume was set to 10 µL and the total analysis time was 30 min. Following chromatographic separation, multiple ion monitoring was used to detect the triply charged, twice charged, and single charged ions of polymyxins (Table 1). […]

Data set [2] relates to NRK-52E cells. Put plainly: CellTiter-Glo cytotoxicity assay (KE3). The format is cell-based, rat. The settings on record: for BMC10, KE3: in vitro POD from KE dose-response, cell viability CellTiter-Glo, NRK-52E, 24 h treatment, n = 3; for MOE, KE3: margin of exposure: BMC10 in NRK-52E vs rat plasma/serum concentration (cmax or css). The method, then: as §1

Consider Colistin, for which, in the data set on RPTEC/TERT1 cells, the “BMC10, KE3” value stood at 23.5 µM and the “MOE, KE3” value is 2.9 – 56.0. In the data set on NRK-52E cells [1] (34 µM), the “Intracellular accumulation in NRK-52E compared to RPTEC-TERT1 cells” value is recorded as “significantly lower in NRK-52E cells”. Also, in the data set with NRK-52E cells [1] (NRK-52E, 34 µM), the “Intracellular concentration compared to polymyxin B” value was “lower intracellular concentrations” and the “Time course of intracellular concentration” value is “continuous rise in the intracellular concentration”. Moreover, the “Intracellular concentration after recovery compared to the 24 h time-point” value in the data set on NRK-52E cells [1] (NRK-52E) is reported as “declined during the 24 h off-dose recovery period”. Moreover, in the data set on NRK-52E cells [2], the “BMC10, KE3” value was found to be 135.5 µM and the “MOE, KE3” value is given as 13.0 – 26.6.

On to Polymyxin B, for which, in the data set on RPTEC/TERT1 cells, the “BMC10, KE3” value stood at 14.2 µM and the “MOE, KE3” value is reported as 3.5 – 24.9. For the same substance, in the data set with NRK-52E cells [1] (34 µM), the “Intracellular accumulation in NRK-52E compared to RPTEC-TERT1 cells” value is given as “significantly lower in NRK-52E cells”. Also, the “Intracellular concentration after recovery compared to the 24 h time-point” value in the data set on NRK-52E cells [1] (NRK-52E) was “declined during the 24 h off-dose recovery period”. In addition, the “Time course of intracellular concentration” value in the data set with NRK-52E cells [1] (NRK-52E, 34 µM) is reported as “continuous rise in the intracellular concentration”. For the same substance, in the data set on NRK-52E cells [2], the “BMC10, KE3” value was 19.9 µM and the “MOE, KE3” value was 2.8.
